Measured values: ChEMBL document CHEMBL3885881, “DrugMatrix”

Species on record: Rattus norvegicus
Test: DrugMatrix - Regimen: Daily Repeat
Assay type: toxicity, organism-based, Sprague-Dawley
Parameters: regimen Daily Repeat, gender Male, age 6-8 weeks
Settings: in vivo, po, route oral GAVAGE, […]; for ABSOLUTE BASOPHIL / ABSOLUTE EOSINOPHIL / ABSOLUTE LYMPHOCYTE / ABSOLUTE MONOCYTE / ABSOLUTE SEGMENTED NEUTROPHIL / BASOPHIL / EOSINOPHIL / ERYTHROCYTE COUNT / HEMATOCRIT / HEMOGLOBIN / LEUKOCYTE COUNT / LYMPHOCYTE / MEAN CORPUSCULAR HEMOGLOBIN / MEAN CORPUSCULAR HEMOGLOBIN CONCENTRATION / MEAN CORPUSCULAR VOLUME / MONOCYTE / NEUTROPHIL / NUCLEATED RED BLOOD CELLS / PLATELET COUNT: tissue Blood; for ALANINE AMINOTRANSFERASE / ALBUMIN / ALKALINE PHOSPHATASE / ASPARTATE AMINOTRANSFERASE / BLOOD UREA NITROGEN / CARBON DIOXIDE / CHLORIDE / CHOLESTEROL / CREATINE PHOSPHOKINASE / CREATININE / GLUCOSE / LACTATE DEHYDROGENASE / LIPASE / PHOSPHORUS / POTASSIUM / SODIUM / TOTAL BILIRUBIN / TOTAL PROTEIN / URIC ACID: tissue Plasma
[1] = 0 mg/kg, 72 h, dose level Control, time 3 day
[2] = 0 mg/kg, 120 h, dose level Control, time 5 day
[3] = 13 mg/kg, 72 h, dose level Low, time 3 day

CN(C)c1nc(N(C)C)nc(N(C)C)n1 [ALTRETAMINE]
ABSOLUTE BASOPHIL [1]: 0 CELLS/uL | ABSOLUTE EOSINOPHIL [1]: 70.67 CELLS/uL | ABSOLUTE LYMPHOCYTE [1]: 12761.5 CELLS/uL | ABSOLUTE MONOCYTE [1]: 214.17 CELLS/uL | ABSOLUTE SEGMENTED NEUTROPHIL [1]: 987 CELLS/uL | BASOPHIL [1]: 0% | EOSINOPHIL [1]: 0.5% | ERYTHROCYTE COUNT [1]: 5.61 x10E6/uL | HEMATOCRIT [1]: 35.22% | HEMOGLOBIN [1]: 13.57 G/DL | LEUKOCYTE COUNT [1]: 14.03 x10E3/uL | LYMPHOCYTE [1]: 91% | MEAN CORPUSCULAR HEMOGLOBIN [1]: 24.25 pg | MEAN CORPUSCULAR HEMOGLOBIN CONCENTRATION [1]: 38.52 G/DL | MEAN CORPUSCULAR VOLUME [1]: 62.9 fL | MONOCYTE [1]: 1.5% | NEUTROPHIL [1]: 7% | NUCLEATED RED BLOOD CELLS [1]: 0 /100WBC | PLATELET COUNT [1]: 997.5 x10E3/uL | ALANINE AMINOTRANSFERASE [1]: 66.5 u/L | ALBUMIN [1]: 3.98 G/DL | ALKALINE PHOSPHATASE [1]: 350 u/L | ASPARTATE AMINOTRANSFERASE [1]: 83.83 u/L | BLOOD UREA NITROGEN [1]: 12.33 mg/dL | CARBON DIOXIDE [1]: 30.33 mmol/L | CHLORIDE [1]: 100 MEQ/L | CHOLESTEROL [1]: 75 mg/dL | CREATINE PHOSPHOKINASE [1]: 200 u/L | CREATININE [1]: 0.17 mg/dL | GLUCOSE [1]: 170 mg/dL | LACTATE DEHYDROGENASE [1]: 89.33 u/L | LIPASE [1]: 10.33 u/L | PHOSPHORUS [1]: 10.88 mg/dL | POTASSIUM [1]: 6.13 MEQ/L | SODIUM [1]: 140.53 MEQ/L | TOTAL BILIRUBIN [1]: 0.2 mg/dL | TOTAL PROTEIN [1]: 5.67 G/DL | URIC ACID [1]: 1.6 mg/dL | ABSOLUTE BASOPHIL [2]: 0 CELLS/uL | ABSOLUTE EOSINOPHIL [2]: 0 CELLS/uL | ABSOLUTE LYMPHOCYTE [2]: 9526.67 CELLS/uL | ABSOLUTE MONOCYTE [2]: 134.17 CELLS/uL | ABSOLUTE SEGMENTED NEUTROPHIL [2]: 922.5 CELLS/uL | BASOPHIL [2]: 0% | EOSINOPHIL [2]: 0% | ERYTHROCYTE COUNT [2]: 5.58 x10E6/uL | HEMATOCRIT [2]: 34.78% | HEMOGLOBIN [2]: 13.5 G/DL | LEUKOCYTE COUNT [2]: 10.58 x10E3/uL | LYMPHOCYTE [2]: 90.17% | MEAN CORPUSCULAR HEMOGLOBIN [2]: 24.27 pg | MEAN CORPUSCULAR HEMOGLOBIN CONCENTRATION [2]: 38.82 G/DL | MEAN CORPUSCULAR VOLUME [2]: 62.48 fL | MONOCYTE [2]: 1.17% | NEUTROPHIL [2]: 8.67% | NUCLEATED RED BLOOD CELLS [2]: 0.17 /100WBC | PLATELET COUNT [2]: 807.17 x10E3/uL | ALANINE AMINOTRANSFERASE [2]: 66.83 u/L | ALBUMIN [2]: 3.73 G/DL | ALKALINE PHOSPHATASE [2]: 286.17 u/L | ASPARTATE AMINOTRANSFERASE [2]: 142.33 u/L | BLOOD UREA NITROGEN [2]: 14.67 mg/dL | CARBON DIOXIDE [2]: 25.5 mmol/L | CHLORIDE [2]: 89.17 MEQ/L | CHOLESTEROL [2]: 75.17 mg/dL | CREATINE PHOSPHOKINASE [2]: 310.67 u/L | CREATININE [2]: 0.2 mg/dL | GLUCOSE [2]: 153 mg/dL | LACTATE DEHYDROGENASE [2]: 1594 u/L | LIPASE [2]: 14.83 u/L | PHOSPHORUS [2]: 11.28 mg/dL | POTASSIUM [2]: 8.46 MEQ/L | SODIUM [2]: 126.88 MEQ/L | TOTAL BILIRUBIN [2]: 0.37 mg/dL | TOTAL PROTEIN [2]: 5.53 G/DL | URIC ACID [2]: 1.52 mg/dL | ABSOLUTE BASOPHIL [3]: 0 CELLS/uL | ABSOLUTE EOSINOPHIL [3]: 45.67 CELLS/uL | ABSOLUTE LYMPHOCYTE [3]: 11954 CELLS/uL | ABSOLUTE MONOCYTE [3]: 232.67 CELLS/uL | ABSOLUTE SEGMENTED NEUTROPHIL [3]: 1567.67 CELLS/uL | BASOPHIL [3]: 0% | EOSINOPHIL [3]: 0.33% | ERYTHROCYTE COUNT [3]: 5.86 x10E6/uL | HEMATOCRIT [3]: 37.47% | HEMOGLOBIN [3]: 14.6 G/DL | LEUKOCYTE COUNT [3]: 13.8 x10E3/uL | LYMPHOCYTE [3]: 86.67% | MEAN CORPUSCULAR HEMOGLOBIN [3]: 24.97 pg | MEAN CORPUSCULAR HEMOGLOBIN CONCENTRATION [3]: 38.97 G/DL | MEAN CORPUSCULAR VOLUME [3]: 64 fL | MONOCYTE [3]: 1.67% | NEUTROPHIL [3]: 11.33% | NUCLEATED RED BLOOD CELLS [3]: 0 /100WBC | PLATELET COUNT [3]: 1022.33 x10E3/uL | ALANINE AMINOTRANSFERASE [3]: 99.33 u/L | ALBUMIN [3]: 4.03 G/DL | ALKALINE PHOSPHATASE [3]: 392.33 u/L | ASPARTATE AMINOTRANSFERASE [3]: 89.67 u/L | BLOOD UREA NITROGEN [3]: 12.33 mg/dL | CARBON DIOXIDE [3]: 29 mmol/L | CHLORIDE [3]: 99 MEQ/L | CHOLESTEROL [3]: 87.33 mg/dL | CREATINE PHOSPHOKINASE [3]: 288 u/L | CREATININE [3]: 0.18 mg/dL | GLUCOSE [3]: 161 mg/dL | LACTATE DEHYDROGENASE [3]: 193 u/L | LIPASE [3]: 10.67 u/L | PHOSPHORUS [3]: 11.53 mg/dL | POTASSIUM [3]: 6.64 MEQ/L | SODIUM [3]: 140.43 MEQ/L | TOTAL BILIRUBIN [3]: 0.23 mg/dL | TOTAL PROTEIN [3]: 5.83 G/DL | URIC ACID [3]: 1.97 mg/dL
